Experimental data published in US20230233482A1, “COMPOSITIONS COMPRISING THYMOL FOR USE IN THE TREATMENT OF INFLAMMATORY OR FUNCTIONAL BOWEL DISORDERS BY MODULATING THE ENDOCANNABINOID SYSTEM” (priority 2020, published 2023).

What was measured:
[1] = weaned piglets, 25.5-510 mg thymol/kg feed
Description: […] piglets (Duroc—Large White) weaned at 28 days of age and with a body weight (BW) of 7.71±1.00 kg were divided into 40 pens (4 piglets per pen, castrated males and females were placed in separate pens) and randomly assigned to one of the following experimental groups (n=32): control group fed with the basal diet (T1), a group fed with the basal diet supplemented with 25.5 mg of thymol/kg feed (T2), a group fed with the basal diet supplemented with 51 mg of thymol/kg feed (T3), a group fed with the basal diet supplemented with 153 mg of thymol/kg feed (T4) and a group fed with the basal diet supplemented with 510 mg of thymol/kg feed (T5). Thymol was provided in a form embedded (microencapsulated) in a lipid matrix (Vetagro SpA, Reggio Emilia, Italy). Concentrations of thymol were selected to meet or exceed the upper limit of inclusion in food and feed established by the European Agency for the Evaluation of Medicinal Products and for the feed. The basal feed was formulated to meet or exceed the nutritional requirements of pigs according to the National Research Council, and feed and water were provided ad libitum (the composition of the basal diet is reported in Table 1). The health condition of the animals was monitored during the study. The piglets were individually weighed at the beginning (day 0) and end (day 14) of the study. Growth parameters, such as FI, ADFI, ADG and F:G (FI—feed intake; ADFI—Average daily feed intake; ADG—Average daily gain; F:G—Feed to gain ratio), were measured in the animals housed in each pen on day 14 (d14) of the experiment.
Animals were blocked in a completely randomised design and data were analysed using GraphPad Prism® software (GraphPad Software, Inc., La Jolla, Calif., USA). Data were analysed using one-way ANOVA followed by Tukey's post hoc test to detect differences among treatments. The pen was the experimental unit for growth performance, whereas the pig was the experimental unit for gene expression. Differences were considered significant at P<0.05, and trends were defined at 0.05≤P<0.1.

CB2 mRNA = experiment: Gene expression (real-time PCR) of cannabinoid receptor 2 in duodenal and ileal mucosa at d14; type: in vivo, pigs
Description: At the end of the study, 8 animals from each treatment group were sacrificed, samples were collected, and analysed. Duodenal and ileal mucosal scrapings were collected. The duodenum and ileum were longitudinally cut to expose the mucosa, washed with a phosphate-buffered saline solution to remove mucus and digesta, then scraped gently, packed, immediately frozen in liquid nitrogen and stored at -80° C. until the analyses of gene and protein expression. Gene expression was analysed using the method reported by […] et al. [The Journal of Nutrition. 2011; 141:2139-45]. Duodenal and ileal scraping samples obtained on d14 of the study were disrupted by grinding them in liquid nitrogen with mortar and pestle, and then homogenised using a TissueLyser (Qiagen, Hilden, Germany). Total RNA was isolated using a NucleoSpin® RNA Kit (Macherey-Nagel, Düren, Germany) according to the manufacturer's instructions. Genomic DNA contamination was removed by treating the samples with the deoxyribonuclease supplied in the extraction kit ([…], RNase-free; Macherey-Nagel). The RNA yield and quality were determined spectrophotometrically by measuring the absorbance at 260 and 280 nm (A260 and A280 nm, respectively) (Microvolume Mode with SmartPath® Technology, Denovix). One microgram of RNA was reverse transcribed using the iScript cDNA Synthesis Kit (Bio-Rad Laboratories Inc., Hercules, Calif., USA) according to the manufacturer's instructions. Real-time PCR was performed using an iCycler Thermal Cycler system and SybrGreen Supermix (Bio-Rad Laboratories Inc.). The thermocycling protocol provided for an initial denaturation step for 1 min and 30 seconds at 95° C., followed by 40 cycles of denaturation at 95° C. for 15 seconds and 30 seconds of annealing and extension at 60° C. After amplification, a melting curve analysis was performed for all the samples, with slow heating from 55° C. to 95° C. at a rate of 0.5° C./s to validate the absence of non-specific products. Gene expression was normalised to a housekeeping gene (HK) encoding portions of porcine ribosomal subunit 60 S, in particular ribosomal protein […] (RPL35). The average threshold cycle (CT) was determined for each gene of interest, and the geometric average was calculated for HK by assuming that CT is the number of cycles required to reach a fixed arbitrary threshold. Delta CT was calculated, then a modification of the 2^-ΔΔCT method [Livak K J, et al., Methods 2001; 25:402-8] was used to analyse the relative expression (fold changes), which was calculated relative to the control group. The sequences, accession numbers in the EMBL database/GenBank, expected product lengths and references for porcine primers are reported in Table 2. […]

FAAH mRNA = experiment: Gene expression (real-time PCR) of ECS enzyme FAAH in duodenal and ileal mucosa at d14; type: in vivo, pigs
Description: (§1) At the end of the study, 8 animals from each treatment group were sacrificed, samples were collected, and analysed. Duodenal and ileal mucosal scrapings were collected. The duodenum and ileum were longitudinally cut to expose the mucosa, washed with a phosphate-buffered saline solution to remove mucus and digesta, then scraped gently, packed, immediately frozen in liquid nitrogen and stored at -80° C. until the analyses of gene and protein expression. Gene expression was analysed using the method reported by […] et al. [The Journal of Nutrition. 2011; 141:2139-45]. […] The RNA yield and quality were determined spectrophotometrically by measuring the absorbance at 260 and 280 nm (A260 and A280 nm, respectively) (Microvolume Mode with SmartPath® Technology, Denovix). […] The average threshold cycle (CT) was determined for each gene of interest, and the geometric average was calculated for HK by assuming that CT is the number of cycles required to reach a fixed arbitrary threshold. Delta CT was calculated, then a modification of the 2^-ΔΔCT method [Livak K J, et al., Methods 2001; 25:402-8] was used to analyse the relative expression (fold changes), which was calculated relative to the control group. […]

TRPV1 mRNA = experiment: Gene expression (real-time PCR) of gut chemosensing marker TRPV1 in duodenal and ileal mucosa at d14; type: in vivo, pigs; details: for TRPV1 mRNA levels compared to the control group: ileum, d14, P=0.0183
Description: (§2) At the end of the study, 8 animals from each treatment group were sacrificed, samples were collected, and analysed. Duodenal and ileal mucosal scrapings were collected. The duodenum and ileum were longitudinally cut to expose the mucosa, washed with a phosphate-buffered saline solution to remove mucus and digesta, then scraped gently, packed, immediately frozen in liquid nitrogen and stored at -80° C. until the analyses of gene and protein expression. Gene expression was analysed using the method reported by […] et al. [The Journal of Nutrition. 2011; 141:2139-45]. Duodenal and ileal scraping samples obtained on d14 of the study were disrupted by grinding them in liquid nitrogen with mortar and pestle, and then homogenised using a TissueLyser (Qiagen, Hilden, Germany). Total RNA was isolated using a NucleoSpin® RNA Kit (Macherey-Nagel, Düren, Germany) according to the manufacturer's instructions. Genomic DNA contamination was removed by treating the samples with the deoxyribonuclease supplied in the extraction kit ([…], RNase-free; Macherey-Nagel). The RNA yield and quality were determined spectrophotometrically by measuring the absorbance at 260 and 280 nm (A260 and A280 nm, respectively) (Microvolume Mode with SmartPath® Technology, Denovix). One microgram of RNA was reverse transcribed using the iScript cDNA Synthesis Kit (Bio-Rad Laboratories Inc., Hercules, Calif., USA) according to the manufacturer's instructions. Real-time PCR was performed using an iCycler Thermal Cycler system and SybrGreen Supermix (Bio-Rad Laboratories Inc.). […] The average threshold cycle (CT) was determined for each gene of interest, and the geometric average was calculated for HK by assuming that CT is the number of cycles required to reach a fixed arbitrary threshold. Delta CT was calculated, then a modification of the 2^-ΔΔCT method [Livak K J, et al., Methods 2001; 25:402-8] was used to analyse the relative expression (fold changes), which was calculated relative to the control group. […]

OR1G1 mRNA = experiment: Gene expression (real-time PCR) of gut chemosensing marker OR1G1 in duodenal and ileal mucosa at d14; type: in vivo, pigs
Description: as §1

CB1 mRNA = experiment: Gene expression (real-time PCR) of cannabinoid receptor 1 in duodenal and ileal mucosa at d14; type: in vivo, pigs
Description: as §2

**Q.** What does the source list for `Cc1ccc(C(C)C)c(O)c1` [thymol]?
**A.** health conditions ([1]; 14 days): good health conditions; mortality ([1]; 14 days): no mortality; differences in average daily feed intake (ADFI) among the treatment groups ([1]; day 14, data not shown): not observed; differences in average daily gain (ADG) among the treatment groups ([1]; day 14, data not shown): not observed; differences in body weight (BW) among the treatment groups ([1]; day 14, data not shown): not observed; differences in feed intake (FI) among the treatment groups ([1]; day 14, data not shown): not observed; differences in feed to gain ratio (F:G) among the treatment groups ([1]; day 14, data not shown): not observed; levels of the CB2 mRNA compared to the control group (CB2 mRNA; duodenum, group T4 (153 mg thymol/kg feed), d14, P=0.004): Significantly increased; levels of the CB2 mRNA compared to the control group (CB2 mRNA; duodenum, group T5 (510 mg thymol/kg feed), d14, P=0.004): Significantly increased; levels of the CB2 mRNA compared to the control group (CB2 mRNA; ileum, group T4 (153 mg thymol/kg feed), d14, P=0.0162): Significantly increased; levels of the CB2 mRNA compared to the control group (CB2 mRNA; ileum, group T5 (510 mg thymol/kg feed), d14, P=0.0162): Significantly increased; differences in FAAH mRNA levels (FAAH mRNA; duodenum, all thymol groups (25.5-510 mg/kg feed), d14): not observed; FAAH mRNA levels compared to the control group (FAAH mRNA; ileum, group T4 (153 mg thymol/kg feed), d14, P=0.0028): significantly increased; TRPV1 mRNA level (TRPV1 mRNA; duodenum, 510 mg thymol/kg of feed, d14, P=0.0382): increased; TRPV1 mRNA levels compared to the control group (TRPV1 mRNA; group T4 (153 mg thymol/kg feed)): increased; TRPV1 mRNA levels compared to the control group (TRPV1 mRNA; group T5 (510 mg thymol/kg feed)): increased; OR1G1 mRNA expression compared to the control group (OR1G1 mRNA; duodenum, 510 mg thymol/kg feed (T5), d14, P=0.0210): higher levels; OR1G1 mRNA expression compared to the control group (OR1G1 mRNA; ileum, 153 mg thymol/kg feed (T4), d14, P=0.0235): higher levels; level of the CB1 mRNA compared to the control group (CB1 mRNA; duodenum, group T5 (510 mg thymol/kg feed), d14, P=0.0209): significantly increased; level of the CB1 mRNA compared to the control group (CB1 mRNA; ileum, group T4 (153 mg thymol/kg feed), d14, P=0.0054): significantly increased; level of the CB1 mRNA compared to the control group (CB1 mRNA; ileum, group T5 (510 mg thymol/kg feed), d14, P=0.0054): significantly increased
